For assay [1], the system named is differentiating human ES/iPS cells. In words: hPS-to-blood differentiation, FACS analysis of hematopoietic subsets (Example 1). The class given is cell-based.
Assay [2] deals with hPSC-derived hematopoietic cells (iPSC line RB9-CB1). In words: hPSC-to-hematopoietic differentiation, flow cytometry of HSC-like surface phenotype (Example 2). Conditions: for concentration required to increase HSC-like phenotype as compared to Forskolin: day 14, representative experiment; for HSC-like phenotype: specificity controls for cAMP, day 14; for frequency of HSC-like cells after inhibition / hematopoietic cell generation efficiency / blood emergence (CD43): inhibition on day 10 and day 12, analysis day 14. The class given is cell-based, human. The procedure: Human iPSC line RB9-CB1 derived from cord blood endothelial cells was cultured on irradiated mouse embryonic fibroblasts (MEFs) in Dulbecco's Modified Eagle Medium:Nutrient Mixture F-12 (DMEM/F12) supplemented with 20% KnockOut-serum replacement (KOSR), 2 mM L-glutamine, 0.1 mM non-essential amino acids, 0.1 mM 2-mercaptoethanol and 10 ng/ml basic fibroblast growth factor, all from Thermo Fischer Scientific Inc. (Waltham, Mass., USA). The cells were incubated in a humidified incubator at […] and 5% CO2.
Embryoid bodies (EBs) were prepared after incubating the pluripotent stem cell colonies with 2 mg/ml Dispase (Thermo Fischer Scientific Inc.), followed by gentle pipetting. The detached colonies were washed twice with 20% KOSR containing DMEM/F12, before plating in ultra low-adherence suspension culture dishes (Corning Inc., Corning, N.Y., USA) to form EBs for 8 days. During suspension culture, MesoTotal™ HPC/HSC Differentiation System (Primorigen Biosciences, Madison, Wis., USA) was used to specify the EBs towards mesoderm commitment. At day 8, EBs were plated on 0.08 μg/mm2 Matrigel™ (BD Biosciences, Franklin Lakes, N.J., USA) and further differentiation towards hematopoietic cells was carried out till day 14 in MesoTotal medium.
(§1) Application of fresh medium and treatment with 10 μM Forskolin (Stemgent, Cambridge, Mass., USA), 500 μM IBMX (3-isobutyl-1-methylxanthine, Santa Cruz Biotechnology, Dallas, Tex., USA) was carried out at day 10 and day 12 of differentiation. To inhibit PKA and Epac, 50 μM PKA inhibitor (Rp-8-CPT-cAMPS) and 20 μM Epac inhibitor (ESI-09) (both from BIOLOG Life Science Institute, Bremen, Germany) were used (20 min pretreatment followed by cAMP induction) on day 10 and day 12 of differentiation and the cells were analyzed on day 14. To analyze hemogenic endothelium, PKA and Epac were inhibited on day 6 and day 8 and the cells were analyzed on day 10. The distance between center of an EB and outer edge of its cellular spread was analyzed using ImageJ (developed at the National Institutes of Health, USA). Colony Formation Assay

In assay [3] the test system is adherent endothelial-like cells of plated EBs. Put plainly: Radial spreading of adherent endothelial-like cells from embryoid bodies (ImageJ). The class given is cell-based, human. Conditions: in the absence or presence of Forskolin+IBMX. As for the experimental part: Embryoid bodies (EBs) were prepared after incubating the pluripotent stem cell colonies with 2 mg/ml Dispase (Thermo Fischer Scientific Inc.), followed by gentle pipetting. The detached colonies were washed twice with 20% KOSR containing DMEM/F12, before plating in ultra low-adherence suspension culture dishes (Corning Inc., Corning, N.Y., USA) to form EBs for 8 days. During suspension culture, MesoTotal™ HPC/HSC Differentiation System (Primorigen Biosciences, Madison, Wis., USA) was used to specify the EBs towards mesoderm commitment. […]
as §1, with “Colony Formation Assay” left out

Assay [4] has as its system hemogenic endothelium phenotype cells (CD43-CD34+CXCR4-CD73-Vecad+). Put plainly: Hemogenic endothelium phenotype by flow cytometry. The class given is cell-based, human. The settings on record: inhibition on day 6 and day 8, analysis day 10; in the absence or presence of Forskolin+IBMX. The procedure:
as §1

Assay [5] has as its system CXCR4 in hPSC-derived hematopoietic cells. In words: CXCR4 surface expression by flow cytometry. The class given is cell-based, human. Conditions: with or without cAMP induction, compared to the control. As for the experimental part:
as §1

In another assay the test system is human cord blood. Conditions: PGE2-mediated cAMP activation; cited from earlier work.
Assay [6] relates to hPSC-derived hematopoietic cells. Put plainly: ROS detection with CellROX Deep Red by flow cytometry. The settings on record: day 14; versus control. The class given is cell-based, human. The procedure:
as §1

In a further assay the test system is HSC egress from the BM. Conditions: administration to mice; cited from earlier work.
In assay [7] the test system is hematopoietic cells derived from human ES/iPS cells. In words: Colony forming unit assay in methylcellulose (Example 1). The class given is cell-based. As for the experimental part:
CFU potential of hematopoietic cells after the 14 day differentiation assay was assessed by plating 2×10^4 cells in Methocult […] (Stem Cell Technologies) supplemented with human SCF (25 ng/ml), GM-CSF (50 ng/ml), IL3 (25 ng/ml) and Erythropoietin (5 U/ml). Cells were incubated in a humidified incubator at 37° C., 5% CO2 for 14 days and colonies were quantified by bright-field microscopy.

Where [8] appears, read: NE treatment (10 μM, 300 μM) at day 10 and 12, analysis day 14.

As to `Cc1ccc(OCC(O)C(C)NC(C)C)c2c1CCC2` (stereo not shown) [ADRB2 antagonist, ICI118,551], the “mediation of the norepinephrine effect through ADRB2” value in [1] (addition of specific ADRB2 antagonist (ICI118,551 at 20 μM) to NE-treated cultures) is given as “unlikely to be mediated through this receptor”.

For `CCCC(=O)Nc1ncnc2c1ncn2[C@@H]1O[C@@H]2COP(=O)(O)O[C@H]2[C@H]1OC(=O)CCC` [dibutyryl-cAMP, N6,O2-dibutyrl-adenosine-3′,5′-cyclic monophosphate], in [2], the “concentration required to increase HSC-like phenotype as compared to Forskolin” value is 10 fold and the HSC-like phenotype result is listed as “upregulated”.

As for `CC(C)(C)c1cc(C(=O)C(C#N)=NNc2cccc(Cl)c2)no1` [Epac inhibitor], in [2], the “frequency of HSC-like cells after inhibition” value is recorded as “decreased” and the “hematopoietic cell generation efficiency / blood emergence (CD43)” value is recorded as “reduced”. Moreover, in assay [3], the “radial spreading of adherent endothelial-like cells” value was “reduced”. Moreover, in assay [4], the hemogenic endothelial fraction result is on record as “decreased”. Besides, in [5], the “CXCR4 expression after Epac inhibition” value is listed as “reduced”.

`Nc1ncnc2c1nc(Br)n2[C@@H]1O[C@@H]2COP(=O)(O)O[C@H]2[C@H]1O` [8-Br-cAMP, 8-bromo-adenosine-3′,5′-cyclic monophosphate]: in [2], the “concentration required to increase HSC-like phenotype as compared to Forskolin” value is listed as 10 fold and the HSC-like phenotype result was “upregulated”.

Take `Nc1ncnc2c1nc(Sc1ccc(Cl)cc1)n2[C@@H]1O[C@@H]2COP(O)(=S)O[C@H]2[C@H]1O` (stereo partly shown) [PKA inhibitor, Rp-8-CPT-cAMPS]: in assay [2], the “frequency of HSC-like cells after inhibition” value was “no negative effect” and the “hematopoietic cell generation efficiency / blood emergence (CD43)” value is “no negative effect”. Also, in assay [3], the “radial spreading of adherent endothelial-like cells” value is “did not have any effect”. In addition, the hemogenic endothelial fraction entry in [4] is given as “no negative effect”.

As for `CCCCC[C@H](O)/C=C/[C@H]1[C@H](O)CC(=O)[C@@H]1C/C=C\CCCC(=O)O` [Prostaglandin E2 (PGE2), Prostaglandin E2], the “human cord blood engraftment” value in the assay with human cord blood was “enhances”.

In the case of `CC(C)Cn1c(=O)n(C)c(=O)c2[nH]cnc21` [IBMX, 3-isobutyl-1-methylxanthine], in [6], the “ROS levels in various hematopoietic phenotypes, including the HSC-like cells” value is listed as “significantly lowered”.

Turning to `CNC[C@H](O)c1ccc(O)c(O)c1` [epinephrine], the “HSC egress from the BM” value in the assay with HSC egress from the BM is recorded as “increased”.

Take `C=C[C@@]1(C)CC(=O)[C@@H]2[C@@]3(C)CCCC(C)(C)[C@@H]3[C@H](O)[C@H](OC(C)=O)[C@@]2(C)O1` [1,9-dideoxy Forskolin, 1,9-Dideoxyforskolin]: the HSC-like phenotype result in [2] is on record as “cannot induce”.

Take `NC[C@H](O)c1ccc(O)c(O)c1` [NE, Norepinephrine]: in assay [1] (300 μM (NE300) at day 10 and day 12, analysis at day 14), the “HSC-like phenotype in total viable cells” value was “significantly increased”. In addition, the “frequency of CD34high CD90high endothelial precursors” value in [1] (NE added at 300 μM) was “trend for an increase”. Moreover, in assay [1] (setting [8]), the “blood fraction (CD43/45+ in total viable)” value is “unchanged” and the “progenitor fraction (CD34+ in CD43/45+ blood)” value is given as “unchanged”. Further, in [1] (NE treatment at day 10 and 12, analysis day 14), the “HSC-like cells in the CD43/45+ blood population” value is “specifically and significantly upregulated”. Further, the “colony formation (CFU frequency) in methylcellulose” value in assay [7] (hematopoietic cells generated with 300 μM (NE300)) is reported as “significant increase”. Also, the “distribution of colony types” value in assay [7] (hematopoietic cells generated with NE) was “not affected”.

(Values after US11542473B2, “Methods and compositions for generating hematopoietic cells” (priority 2016, dated 2023).)
